CC(C)c1ccc2sc3ccccc3c(=O)c2c1
Conditions	solubility (mole fraction)
in 1,2-dichloroethane, 306.25 K	0.392
in 1,2-dichloroethane, 309.15 K	0.424
in 1,2-dichloroethane, 311.25 K	0.455
in 1,2-dichloroethane, 315.15 K	0.486
in 1,2-dichloroethane, 318.15 K	0.516
in 1,2-dichloroethane, 321.15 K	0.546
in 1,2-dichloroethane, 324.65 K	0.572
in 1,2-dichloroethane, 326.85 K	0.615
in 1,4-dioxane, 307.15 K	0.34
in 1,4-dioxane, 310.15 K	0.381
in 1,4-dioxane, 314.05 K	0.429
in 1,4-dioxane, 317.15 K	0.475
in 1,4-dioxane, 320.05 K	0.512
in 1,4-dioxane, 323.15 K	0.543
in 1,4-dioxane, 326.65 K	0.589
in 1,4-dioxane, 329.85 K	0.637
in acetone, 299.15 K	0.126
in acetone, 303.15 K	0.167
in acetone, 307.15 K	0.219
in acetone, 310.15 K	0.266
in acetone, 314.25 K	0.319
in acetone, 317.15 K	0.358
in acetone, 320.15 K	0.383
in acetone, 323.15 K	0.417
in ethanol, 305.65 K	0.0424
in ethanol, 307.95 K	0.0493
in ethanol, 309.65 K	0.0557
in ethanol, 312.15 K	0.0703
in ethanol, 315.15 K	0.1
in ethanol, 318.15 K	0.154
in ethanol, 321.15 K	0.26
in ethyl acetate, 305.25 K	0.192
in ethyl acetate, 308.15 K	0.24
in ethyl acetate, 311.65 K	0.283
in ethyl acetate, 314.15 K	0.325
in ethyl acetate, 317.05 K	0.355
in ethyl acetate, 320.15 K	0.409
in ethyl acetate, 323.65 K	0.461
in ethyl acetate, 327.15 K	0.511
in methanol, 299.15 K	0.00556
in methanol, 302.15 K	0.00643
in methanol, 305.15 K	0.00761
in methanol, 308.15 K	0.00911
in methanol, 311.15 K	0.0113
in methanol, 314.15 K	0.0145
in methanol, 317.15 K	0.0196
in methanol, 320.15 K	0.0264
in toluene, 304.65 K	0.332
in toluene, 308.15 K	0.374
in toluene, 311.65 K	0.412
in toluene, 315.15 K	0.453
in toluene, 318.15 K	0.489
in toluene, 321.05 K	0.526

Reference: BigSolDB 2.1
